Values quoted from earlier work, collected in PubChem BioAssay AID1259409 (Chemical Carcinogenesis Research Information System (CCRIS), 2018).
Values joined by “and” are separate entries in the source; they are usually repeats but may differ in a detail not shown here. Equal entries are not always repeated.

System: rodent chemically induced tumor inhibition, incidence and multiplicity
Test: CCRIS tumor inhibitor studies

SMILES: O=c1cc(-c2ccccc2)oc2ccc3ccccc3c12
- tumour outcome (control, treated, inhibition, significance) (Carcinogen: 2-AMINO-1-METHYL-6-PHENYLIMIDAZO[4,5-B]PYRIDINE [105650-23-5], Dose [Inhibitor]: 1000 PPM IN DIET FOR 4 WK BEGINNING WK PRIOR TO FIRST CARCINOGEN DOSE (STUDY DURATION: 25 WK), Route [Inhibitor]: ORAL, Species: RAT, Strain/Sex: SPRAGUE-DAWLEY/FEMALE, Target Tissue: Type of Lesion: MAMMARY GLAND: FIBROADENOMA OR DUCTAL CARCINOMA, Dose [Carcinogen]: 85 MG/KG BW 2X/WK FOR 4 WK (STUDY DURATION: 25 WK), Promoter: NONE): 67.7%, 12.5%, 82%, p<0.001
- tumour outcome (control, treated, inhibition, significance) (Carcinogen: 7,12-DIMETHYLBENZ[A]ANTHRACENE [57-97-6], Dose [Inhibitor]: 500 PPM IN DIET FOR 10 WK BEGINNING 1 WK PRIOR TO FIRST CARCINOGEN DOSE (STUDY DURATION: 11 MONTHS), Route [Inhibitor]: ORAL, Species: FISH, Strain/Sex: RAINBOW TROUT/MALE, FEMALE, Target Tissue: Type of Lesion: LIVER: TUMOR, Dose [Carcinogen]: 800 PPM IN DIET FOR 9 WK (STUDY DURATION: 11 MONTHS), Promoter: NONE): 4%, 7%, -75%, not significant
- tumour outcome (control, treated, inhibition, significance) (Carcinogen: 7,12-DIMETHYLBENZ[A]ANTHRACENE [57-97-6], Dose [Inhibitor]: 500 PPM IN DIET FOR 10 WK BEGINNING 1 WK PRIOR TO FIRST CARCINOGEN DOSE (STUDY DURATION: 11 MONTHS), Route [Inhibitor]: ORAL, Species: FISH, Strain/Sex: RAINBOW TROUT/MALE, FEMALE, Target Tissue: Type of Lesion: STOMACH: TUMOR, Dose [Carcinogen]: 800 PPM IN DIET FOR 9 WK (STUDY DURATION: 11 MONTHS), Promoter: NONE): 92%, 28%, 70%, p<0.001
- tumour outcome (control, treated, inhibition, significance) (Carcinogen: 7,12-DIMETHYLBENZ[A]ANTHRACENE [57-97-6], Dose [Inhibitor]: 500 PPM IN DIET FOR 10 WK BEGINNING 1 WK PRIOR TO FIRST CARCINOGEN DOSE (STUDY DURATION: 11 MONTHS), Route [Inhibitor]: ORAL, Species: FISH, Strain/Sex: RAINBOW TROUT/MALE, FEMALE, Target Tissue: Type of Lesion: SWIM BLADDER: TUMOR, Dose [Carcinogen]: 800 PPM IN DIET FOR 9 WK (STUDY DURATION: 11 MONTHS), Promoter: NONE): 46%, 27%, 41%, p<0.001
- tumour outcome (control, treated, inhibition, significance) (Carcinogen: 7,12-DIMETHYLBENZ[A]ANTHRACENE, 57-97-6, Dose [Inhibitor]: 100 UG APPLIED ONCE 5 MIN BEFORE DMBA (STUDY DURATION: 28 WK), Route [Inhibitor]: DERMAL, Species: MOUSE, Strain/Sex: CD-1/FEMALE, Target Tissue: Type of Lesion: SKIN: PAPILLOMA, Dose [Carcinogen]: 2.56 UG APPLIED ONCE 5 MIN AFTER INHIBITOR, Promoter: 12-O-TETRADECANOYLPHORBOL-13-ACETATE, 16561-29-8): 82%, 65%, 21%, not calculated
- tumour outcome (control, treated, inhibition, significance) (Carcinogen: 7,12-DIMETHYLBENZ[A]ANTHRACENE, 57-97-6, Dose [Inhibitor]: 1000 UG APPLIED ONCE 5 MIN BEFORE DMBA (STUDY DURATION: 28 WK), Route [Inhibitor]: DERMAL, Species: MOUSE, Strain/Sex: CD-1/FEMALE, Target Tissue: Type of Lesion: SKIN: PAPILLOMA, Dose [Carcinogen]: 2.56 UG APPLIED ONCE 5 MIN AFTER INHIBITOR, Promoter: 12-O-TETRADECANOYLPHORBOL-13-ACETATE, 16561-29-8): 82%, 60%, 27%, not calculated
- tumour outcome (control, treated, inhibition, significance) (Carcinogen: DIETHYLNITROSAMINE, 55-18-5, Dose [Inhibitor]: 500 PPM IN DIET FOR 6 WK PRIOR TO CARCINOGEN DOSE (STUDY DURATION: 48 WK), Route [Inhibitor]: ORAL, Species: FISH, Strain/Sex: MT. SHASTA RAINBOW/MALE, FEMALE, Target Tissue: Type of Lesion: LIVER: HEPATOCELLULAR CARCINOMA AND HEPATOCHOLANGIOCELLULAR CARCINOMA, Dose [Carcinogen]: 250 PPM AQUEOUS SOLUTION FOR 24 HR, Promoter: NONE USED): 105/131 (80%), 90/98 (92%), -15%, p=0.0102
- tumour outcome (control, treated, inhibition, significance) (Carcinogen: N-NITROSOETHYLUREA, 759-73-9, Dose [Inhibitor]: 0, 150 MG/KG IN OLIVE OIL 48 HR PRIOR TO CARCINOGEN DOSE (STUDY DURATION: 8 WK), Route [Inhibitor]: INTRAPERITONEAL, Species: MOUSE, Strain/Sex: AKR/FEMALE, Target Tissue: Type of Lesion: LUNG: TUMOR, Dose [Carcinogen]: 8 MG/KG IN 0.22 MOLAR SODIUM CITRATE BUFFER 1/WK FOR 4 WK, Promoter: NONE USED): 8/32 (25%), 8/35 (23%), 8%, not calculated
- tumour outcome (control, treated, inhibition, significance) (Carcinogen: N-NITROSOETHYLUREA, 759-73-9, Dose [Inhibitor]: 0, 150 MG/KG IN OLIVE OIL 48 HR PRIOR TO CARCINOGEN DOSE (STUDY DURATION: 8 WK), Route [Inhibitor]: INTRAPERITONEAL, Species: MOUSE, Strain/Sex: C3H/HE/FEMALE, Target Tissue: Type of Lesion: LUNG: TUMOR, Dose [Carcinogen]: 8 MG/KG IN 0.22 MOLAR SODIUM CITRATE BUFFER 1/WK FOR 4 WK, Promoter: NONE USED): 26/33 (79%), 25/29 (86%), -9%, not calculated
- tumour outcome (control, treated, inhibition, significance) (Carcinogen: N-NITROSOETHYLUREA, 759-73-9, Dose [Inhibitor]: 0, 150 MG/KG IN OLIVE OIL 48 HR PRIOR TO CARCINOGEN DOSE (STUDY DURATION: 8 WK), Route [Inhibitor]: INTRAPERITONEAL, Species: MOUSE, Strain/Sex: C57BL/FEMALE, Target Tissue: Type of Lesion: LUNG: TUMOR, Dose [Carcinogen]: 8 MG/KG IN 0.22 MOLAR SODIUM CITRATE BUFFER 1/WK FOR 4 WK, Promoter: NONE USED): 9/35 (26%), 17/29 (57%), -119%, not calculated
- tumour outcome (control, treated, inhibition, significance) (Carcinogen: N-NITROSOETHYLUREA, 759-73-9, Dose [Inhibitor]: 0, 150 MG/KG IN OLIVE OIL 48 HR PRIOR TO CARCINOGEN DOSE (STUDY DURATION: 8 WK), Route [Inhibitor]: INTRAPERITONEAL, Species: MOUSE, Strain/Sex: DBA/FEMALE, Target Tissue: Type of Lesion: LUNG: TUMOR, Dose [Carcinogen]: 8 MG/KG IN 0.22 MOLAR SODIUM CITRATE BUFFER 1/WK FOR 4 WK, Promoter: NONE USED): 12/34 (35%), 15/34 (44%), -26%, not calculated
- tumour outcome (control, treated, inhibition, significance) (Carcinogen: N-NITROSOETHYLUREA, 759-73-9, Dose [Inhibitor]: 0, 150 MG/KG IN OLIVE OIL 48 HR PRIOR TO CARCINOGEN DOSE (STUDY DURATION: 8 WK), Route [Inhibitor]: INTRAPERITONEAL, Species: MOUSE, Strain/Sex: SWISS/FEMALE, Target Tissue: Type of Lesion: LUNG: TUMOR, Dose [Carcinogen]: 8 MG/KG IN 0.22 MOLAR SODIUM CITRATE BUFFER 1/WK FOR 4 WK, Promoter: NONE USED): 26/27 (96%), 12/16 (75%), 22%, not calculated
- tumour outcome (control, treated, inhibition, significance) (Dose [Inhibitor]: 0, 0.015% IN DIET FOR 9 WK BEGINNING 1 WK PRIOR TO AND CONTINUING DURING CARCINOGEN TREATMENT (STUDY DURATION: 42 WK), Route [Inhibitor]: ORAL, Species: RAT, Strain/Sex: F344/MALE, Target Tissue: Type of Lesion: LIVER: HEPATOMA, Dose [Carcinogen]: 25 UG 5 D/WK FOR 8 WK, Promoter: NONE USED): 15/15 (100%), 4/16 (25%), 75%, not calculated and 15/15 (100%), 5/15 (31%), 69%, not calculated
- tumour outcome (control, treated, inhibition, significance) (Dose [Inhibitor]: 0, 50 PPM IN DIET BEGINNING 8 WK PRIOR TO CARCINOGEN AND CONTINUING FOR 6 WK POST CARCINOGEN (STUDY DURATION: 68 WK), Route [Inhibitor]: ORAL, Species: FISH, Strain/Sex: RAINBOW TROUT, Target Tissue: Type of Lesion: LIVER: HEPATOCELLULAR CARCINOMA, Dose [Carcinogen]: 20 PPB IN DIET FOR 2 WK, Promoter: NONE USED): 43/118 (36%), 20/117 (17%), 53%, p<0.05
- tumour outcome (control, treated, inhibition, significance) (Dose [Inhibitor]: 0, 500 PPM IN DIET BEGINNING 8 WK PRIOR TO CARCINOGEN AND CONTINUING FOR 6 WK POST CARCINOGEN (STUDY DURATION: 68 WK), Route [Inhibitor]: ORAL, Species: FISH, Strain/Sex: RAINBOW TROUT, Target Tissue: Type of Lesion: LIVER: HEPATOCELLULAR CARCINOMA, Dose [Carcinogen]: 20 PPB IN DIET FOR 2 WK, Promoter: NONE USED): 43/118 (36%), 7/120 (6%), 84%, p<0.01
- outcome (Dose [Inhibitor]: 0.005% IN DIET BEGINNING 4 WK PRIOR TO CARCINOGEN DOSE AND CONTINUING FOR 4 ADDITIONAL WK CONCURRENTLY WITH CARCINOGEN D, Route [Inhibitor]: ORAL, Species: FISH, Strain/Sex: MT. SHASTA RAINBOW TROUT, Target Tissue: Type of Lesion: LIVER: CHOLANGIOCELLULAR CARCINOMA OR ADENOMA, Dose [Carcinogen]: 10 PPB IN DIET FOR 4 WK, Promoter: NONE USED): 0/166, 1/177, 0%
- tumour outcome (control, treated, inhibition, significance) (Dose [Inhibitor]: 0.005% IN DIET BEGINNING 4 WK PRIOR TO CARCINOGEN DOSE AND CONTINUING FOR 4 ADDITIONAL WK CONCURRENTLY WITH CARCINOGEN D, Route [Inhibitor]: ORAL, Species: FISH, Strain/Sex: MT. SHASTA RAINBOW TROUT, Target Tissue: Type of Lesion: LIVER: HEPATOCELLULAR CARCINOMA OR MIXED CARCINOMA OR HEPATOCELLULAR ADENOMA, Dose [Carcinogen]: 10 PPB IN DIET FOR 4 WK, Promoter: NONE USED): 39/166 (23%), 7/177 (4%), 83%, p<0.01
- tumour outcome (control, treated, inhibition, significance) (Dose [Inhibitor]: 0.005% IN DIET FOR 8 WK (STUDY DURATION: 1 YR), Route [Inhibitor]: ORAL, Species: FISH, Strain/Sex: MT. SHASTA RAINBOW TROUT, Target Tissue: Type of Lesion: LIVER: CHOLANGIOCELLULAR CARCINOMA OR ADENOMA, Dose [Carcinogen]: 0.5 PPM AQUEOUS SOLUTION FOR 30 MIN EXPOSURE OF EMBRYOS 21 D AFTER FERTILIZATION, Promoter: NONE USED): 8/182 (4%), 7/175 (4%), 0%, not calculated
- outcome (Dose [Inhibitor]: 0.05% IN DIET BEGINNING 4 WK PRIOR TO CARCINOGEN DOSE AND CONTINUING FOR 4 ADDITIONAL WK CONCURRENTLY WITH CARCINOGEN DO, Route [Inhibitor]: ORAL, Species: FISH, Strain/Sex: MT. SHASTA RAINBOW TROUT, Target Tissue: Type of Lesion: LIVER: CHOLANGIOCELLULAR CARCINOMA OR ADENOMA, Dose [Carcinogen]: 10 PPB IN DIET FOR 4 WK, Promoter: NONE USED): 0/166 (0%), 0/172 (0%)
- tumour outcome (control, treated, inhibition, significance) (Dose [Inhibitor]: 0.05% IN DIET BEGINNING 4 WK PRIOR TO CARCINOGEN DOSE AND CONTINUING FOR 4 ADDITIONAL WK CONCURRENTLY WITH CARCINOGEN DO, Route [Inhibitor]: ORAL, Species: FISH, Strain/Sex: MT. SHASTA RAINBOW TROUT, Target Tissue: Type of Lesion: LIVER: HEPATOCELLULAR CARCINOMA OR MIXED CARCINOMA OR HEPATOCELLULAR ADENOMA, Dose [Carcinogen]: 10 PPB IN DIET FOR 4 WK, Promoter: NONE USED): 39/166 (23%), 1/172 (0.6%), 97%, p<0.01
